PubChem BioAssay (NCI)
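Values below derive from 48-hour exposures of cells grown in 96-well plates, with endpoints linearly interpolated between the two concentrations bracketing the appropriate inhibition level. GI50 marks 50% less growth. TGI is the concentration that stops growth completely.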

Tests used:
Experiment in all cases: NCI anticancer screen, dose series, 48 h
[1] = system: 786-0 renal
[2] = system: SNB-75 CNS
[3] = system: PC-3 prostate
[4] = system: OVCAR-5 ovarian
[5] = system: LOX IMVI melanoma
[6] = system: MCF7 breast
[7] = system: HCC-2998 colon
[8] = system: SF-295 CNS
[9] = system: SN12C renal
[10] = system: BT-549 breast
[11] = system: NCI-H460 lung
[12] = system: SK-OV-3 ovarian
[13] = system: UACC-62 melanoma
[14] = system: NCI-H226 lung
[15] = system: SF-539 CNS
[16] = system: HS 578T breast
[17] = system: MALME-3M melanoma
[18] = system: TK-10 renal
[19] = system: HL-60(TB) leukemia
[20] = system: CAKI-1 renal
[21] = system: HOP-92 NSCLC
[22] = system: SNB-19 CNS
[23] = system: OVCAR-8 ovarian
[24] = system: M14 melanoma
[25] = system: CCRF-CEM leukemia
[26] = system: K-562 leukemia
[27] = system: NCI/ADR-RES ovarian
[28] = system: SK-MEL-2 melanoma
[29] = system: HT29 colon
[30] = system: IGROV1 ovarian
[31] = system: A549 NSCLC
[32] = system: MDA-MB-231 breast
[33] = system: SF-268 CNS
[34] = system: U251 CNS
[35] = system: HOP-62 NSCLC
[36] = system: T-47D breast
[37] = system: KM12 colon
[38] = system: SR leukemia
[39] = system: NCI-H23 lung
[40] = system: RXF 393 renal
[41] = system: MDA-MB-435
[42] = system: HCT-116 colon
[43] = system: SW-620 colon
[44] = system: OVCAR-4 ovarian
[45] = system: ACHN renal
[46] = system: COLO 205 colon
[47] = system: OVCAR-3 ovarian
[48] = system: RPMI-8226 leukemia
[49] = system: UACC-257 melanoma
[50] = system: SK-MEL-5 melanoma
[51] = system: DU-145 prostate
[52] = system: EKVX NSCLC
[53] = system: UO-31 renal
[54] = system: MOLT-4 leukemia
[55] = system: SK-MEL-28 melanoma
[56] = system: NCI-H522 lung
[57] = system: HCT-15 colon
[58] = system: A498 renal

Cc1cc(Nc2ccc(OCc3ccccc3)cc2)nc2cc(O)ccc12
GI50 [1]: 4.51 µM
TGI [1]: 17.2 µM
GI50 [2]: 2400 nM
TGI [2]: 11.2 µM
GI50 [3]: 3.46 µM
TGI [3]: 18 µM
GI50 [4]: 4.66 µM
TGI [4]: 18.4 µM
GI50 [5]: 2470 nM
TGI [5]: 6.47 µM
GI50 [6]: 3.32 µM
TGI [6]: 14.2 µM
GI50 [7]: 2410 nM
TGI [7]: 5.18 µM
GI50 [8]: 2230 nM
TGI [8]: 5.36 µM
GI50 [9]: 5.75 µM
TGI [9]: 20.3 µM
GI50 [10]: 5.46 µM
TGI [10]: 21 µM
GI50 [11]: 3.09 µM
TGI [11]: 10.2 µM
GI50 [12]: 13.4 µM
TGI [12]: 26.7 µM
GI50 [13]: 2960 nM
TGI [13]: 10.7 µM
GI50 [14]: 3.49 µM
TGI [14]: 17.6 µM
GI50 [15]: 2080 nM
TGI [15]: 4.93 µM
GI50 [16]: 10.2 µM
TGI [16]: 29.2 µM
GI50 [17]: 3.88 µM
TGI [17]: 11.2 µM
GI50 [18]: 14.5 µM
TGI [18]: 29.2 µM
GI50 [19]: 3.38 µM
TGI [19]: 14.7 µM
GI50 [20]: 4.88 µM
TGI [20]: 18.3 µM
GI50 [21]: 2010 nM
TGI [21]: 6.26 µM
GI50 [22]: 9.57 µM
TGI [22]: 23.2 µM
GI50 [23]: 12.4 µM
TGI [23]: 29.5 µM
GI50 [24]: 2390 nM
TGI [24]: 6.15 µM
GI50 [25]: 3.01 µM
TGI [25]: 20.7 µM
GI50 [26]: 1090 nM
TGI [26]: 14.9 µM
GI50 [27]: 5.93 µM
TGI [27]: 19.8 µM
GI50 [28]: 11.9 µM
TGI [28]: 30.1 µM
GI50 [29]: 3.86 µM
TGI [29]: 14.9 µM
GI50 [30]: 10.6 µM
TGI [30]: 26.3 µM
GI50 [31]: 5.23 µM
TGI [31]: 20.4 µM
GI50 [32]: 2520 nM
TGI [32]: 8.78 µM
GI50 [33]: 11.9 µM
TGI [33]: 26.4 µM
GI50 [34]: 4.54 µM
TGI [34]: 17.5 µM
GI50 [35]: 11.7 µM
TGI [35]: 26.5 µM
GI50 [36]: 5.93 µM
TGI [36]: 23.2 µM
GI50 [37]: 3.1 µM
TGI [37]: 13.3 µM
GI50 [38]: 3.26 µM
TGI [38]: 13.8 µM
GI50 [39]: 6.91 µM
TGI [39]: 21.5 µM
GI50 [40]: 2950 nM
TGI [40]: 12.1 µM
GI50 [41]: 5.49 µM
TGI [41]: 17.9 µM
GI50 [42]: 4 µM
TGI [42]: 14.6 µM
GI50 [43]: 5.12 µM
TGI [43]: 19.4 µM
GI50 [44]: 8.74 µM
TGI [44]: 22.6 µM
GI50 [45]: 3.41 µM
TGI [45]: 13.3 µM
GI50 [46]: 4.84 µM
TGI [46]: 17 µM
GI50 [47]: 8.79 µM
TGI [47]: 22.5 µM
GI50 [48]: 2500 nM
TGI [48]: 8.33 µM
GI50 [49]: 3.49 µM
TGI [49]: 13.5 µM
GI50 [50]: 1680 nM
TGI [50]: 3.2 µM
GI50 [51]: 11.9 µM
TGI [51]: 25.4 µM
GI50 [52]: 12.3 µM
TGI [52]: 27.2 µM
GI50 [53]: 2040 nM
TGI [53]: 6.58 µM
GI50 [54]: 3.37 µM
TGI [54]: 17.4 µM
GI50 [55]: 2950 nM
TGI [55]: 8.19 µM
GI50 [56]: 3.01 µM
TGI [56]: 12.1 µM
GI50 [57]: 2160 nM
TGI [57]: 5.48 µM
GI50 [58]: 13 µM
TGI [58]: 27 µM
